From patent US20250344734A1, “UNSATURATED FATTY ACIDS AND THEIR USE TO MODIFY TASTE” (Firmenich Incorporated, priority 2022, published 2025)

Target: T1, T2R75 (TAS2R46) (Homo sapiens, UniProt P59540)
T1 construct: expressed in transfected cells; host or cells: cells expressing a promiscuous G protein (e.g., G16g44)
T1 sequence (P59540 1-309): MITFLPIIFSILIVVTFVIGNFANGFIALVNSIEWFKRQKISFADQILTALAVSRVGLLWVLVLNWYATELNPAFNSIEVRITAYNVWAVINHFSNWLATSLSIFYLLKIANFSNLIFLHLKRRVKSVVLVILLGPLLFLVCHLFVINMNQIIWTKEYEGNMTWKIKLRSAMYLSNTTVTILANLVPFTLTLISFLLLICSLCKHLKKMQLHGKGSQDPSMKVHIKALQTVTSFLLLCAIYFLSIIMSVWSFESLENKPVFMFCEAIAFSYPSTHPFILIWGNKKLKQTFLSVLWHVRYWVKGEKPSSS
Experiment: FLIPR calcium assay, block of bitter agonist response, T2R75
Type: cell-based
Conditions: unsaturated fatty acid concentration of 200 µM, cells stimulated with known bitter agonist
Method: Cells expressing a promiscuous […] (e.g., G16g44) were transfected with vectors encoding 18 functional bitter receptor cDNAs, with one receptor per transfection. The cells were transfected directly in 384-well format high-density plates and incubated for 28 hours. Later, cells were loaded with the Ca-specific dye Fluo4-AM. After an incubation of 60 minutes, excess dye is washed off, and cells are stimulated with a known bitter agonist for each receptor and various unsaturated fatty acids. Changes in intracellular fluorescence are recorded using a FLIPR instrument. Bitter antagonists and corresponding receptors are identified based on percentage inhibition of agonist's activity on a given receptor.
The above protocol was carried out using 16 different unsaturated fatty acids. A particular T2R receptor was identified as being antagonized by a particular unsaturated fatty acid if it triggered a >25% block of agonist's cellular response at 200 μM concentration of unsaturated fatty acid. […] Table 2 indicates the sixteen (16) compounds tested by their compound number from Table 1 above. The 18 bitter taste receptors screened are the human bitter taste receptors we named. T2R01 (TAS2R01), T2R03 (TAS2R03), T2R04 (TAS2R04), T2R07 (TAS2R07), T2R08 (TAS2R08), T2R09 (TAS2R09), T2R10 (TAS2R10), T2R13 (TAS2R13), T2R14 (TAS2R14), T2R16 (TAS2R16), T2R54 (TAS2R39, T2R61 (TAS2R43), T2R63 (TA2R20), T2R64 (TAS2R31), T2R65 (TAS2R19), T2R67 (TAS2R50), T2R71 (TAS2R41), and T2R75 (TAS2R46). The corresponding IUPHAR nomenclature for each receptor is given in parenthesis. In Table 2, these receptors are identified by the last two digits. For example, T2R01 is indicated as 01. Table 2 reports the percentage block of cellular response over baseline at an unsaturated fatty acid concentration of 200 µM.

CC(C)=CCC/C(C)=C/C(=O)O [Compound 129]
percentage block of cellular response over baseline, 75: 50%
